Results from BindingDB's records for doi:10.3109/14756366.2013.793184 (Nycomed, 2014).
Several values for one entry are separate records, joined by “and”; a condition that tells them apart may be missing. Equal entries are not always repeated.

Target: Inosine-5'-monophosphate dehydrogenase 2 (Homo sapiens, UniProt P12268)
Assay: Enzyme Assay
Conditions: pH 8; 37 °C
Description: The reaction was initiated by the addition of 300 μM of IMP and 500 μM of NAD+ and the assay was allowed to proceed at 37 °C for 50 min before stopping by the addition of 15 mM GMP. The NADH generated was measured by reading the absorbance at 340 nm.

Row | Compound | IC50
1 | CCC(CC#N)OC(=O)N[C@@H](C)c1cccc(NC(=O)Nc2ccc3c(c2)OCO3)c1 (some centres not stated) [IMPDH II inhibitor, 20] | > 30 µM
2 | CCC(CC#N)OC(=O)N[C@@H](C)c1cccc(NC(=O)Nc2ccc3c(c2)C(C)CO3)c1 (some centres not stated) [IMPDH II inhibitor, 24] | < 30 µM
3 | CCC(CC#N)OC(=O)N[C@@H](C)c1cccc(NC(=O)Nc2ccc3ncnc(OC)c3c2)c1 (some centres not stated) [IMPDH II inhibitor, 25] | < 30 µM
4 | CCC(CC#N)OC(=O)N[C@@H](C)c1cccc(NC(=O)Nc2ccc3c(=O)cc(C)oc3c2)c1 (some centres not stated) [IMPDH II inhibitor, 26] | < 30 µM
5 | CCC(CC#N)OC(=O)N[C@@H](C)c1cccc(NC(=N)Nc2ccc(C#N)c(OC)c2)c1 (some centres not stated) [IMPDH II inhibitor, 30] | < 30 µM and 30 µM
6 | CCC(CC#N)OC(=O)N[C@@H](C)c1cccc(NC(=N)Nc2ccc(OC)c(OC)c2)c1 (some centres not stated) [IMPDH II inhibitor, 31] | < 30 µM
7 | CCC(CC#N)OC(=O)N[C@@H](C)c1cccc(N/C(=C/[N+](=O)[O-])Nc2ccc(C#N)c(OC)c2)c1 (some centres not stated) [IMPDH II inhibitor, 34] | < 30 µM
8 | CCC(CC#N)OC(=O)N[C@@H](C)c1cccc(N/C(=C/[N+](=O)[O-])Nc2ccc(OC)c(OC)c2)c1 (some centres not stated) [IMPDH II inhibitor, 35] | < 30 µM
9 | CCC(CC#N)OC(=O)N[C@@H](C)c1cccc(NCC(=O)Nc2ccc(OC)c(OC)c2)c1 (some centres not stated) [IMPDH II inhibitor, 36] | < 30 µM
10 | CCC(CC#N)OC(=O)N[C@@H](C)c1cccc(NC(=O)CNc2ccc(C#N)c(OC)c2)c1 (some centres not stated) [IMPDH II inhibitor, 37] | < 30 µM
11 | CCC(CC#N)OC(=O)N[C@@H](C)c1cccc(NC(=O)COc2ccc(C#N)c(OC)c2)c1 (some centres not stated) [IMPDH II inhibitor, 38] | < 30 µM
12 | CCC(CC#N)OC(=O)N[C@@H](C)c1cccc(NC(=O)COc2ccc(OC)c(OC)c2)c1 (some centres not stated) [IMPDH II inhibitor, 39] | < 30 µM
13 | CCC(CC#N)OC(=O)N[C@@H](C)c1cccc(NC(=O)NS(=O)(=O)c2ccc(OC)c(OC)c2)c1 (some centres not stated) [IMPDH II inhibitor, 40] | < 30 µM
14 | CCC(CC#N)OC(=O)N[C@@H](C)c1cccc(NC(=O)N2CCN(c3ccc(C#N)c(OC)c3)CC2)c1 (some centres not stated) [IMPDH II inhibitor, 41] | < 30 µM
15 | CCC(CC#N)OC(=O)N[C@@H](C)c1cccc(NC(=O)c2cncc(-c3ccc(C#N)c(OC)c3)n2)c1 (some centres not stated) [IMPDH II inhibitor, 43] | < 30 µM
16 | CCC(CC#N)OC(=O)N[C@@H](C)c1cccc(Nc2nc3ccc(-c4ccc(C#N)c(OC)c4)cc3[nH]2)c1 (some centres not stated) [IMPDH II inhibitor, 44] | < 30 µM

Row | Compound | IC50
17 | COc1cc(N/C(=N/C#N)Nc2cccc(OCC(=O)C(C)=O)c2)ccc1C#N [IMPDH II inhibitor, 45] | < 30 µM
18 | COc1cc(N/C(=N/C#N)Nc2cccc(OCC(=O)O)c2)ccc1C#N [IMPDH II inhibitor, 46] | < 30 µM
19 | COc1cc(N/C(=N/C#N)Nc2cccc(-c3nnn(C)n3)c2)ccc1C#N [IMPDH II inhibitor, 47] | < 30 µM
20 | COc1cc(N/C(=N/C#N)Nc2cccc(-c3nnnn3C)c2)ccc1C#N [IMPDH II inhibitor, 48] | < 30 µM
21 | COc1cc(N/C(=N/C#N)Nc2cccc(Cc3nnn(C)n3)c2)ccc1C#N [IMPDH II inhibitor, 49] | < 30 µM
22 | COc1cc(N/C(=N/C#N)Nc2cccc(CCC(=O)O)c2)ccc1C#N [IMPDH II inhibitor, 50] | < 30 µM
23 | COc1cc(N/C(=N/C#N)Nc2cccc(/C=C/C(=O)O)c2)ccc1C#N [IMPDH II inhibitor, 51] | < 30 µM
24 | COc1cc(N/C(=N/C#N)Nc2cccc(CC(=O)O)c2)ccc1C#N [IMPDH II inhibitor, 52] | < 30 µM
25 | COc1cc(N/C(=N/C#N)Nc2cccc(C(=O)O)c2)ccc1C#N [IMPDH II inhibitor, 53] | < 30 µM
26 | COc1cc(N/C(=N/C#N)Nc2cccc(-c3ccccc3F)c2)ccc1C#N [IMPDH II inhibitor, 54] | < 30 µM
27 | COc1cc(N/C(=N/C#N)Nc2cccc(-c3cccc(F)c3)c2)ccc1C#N [IMPDH II inhibitor, 55] | < 30 µM
28 | COc1cc(N/C(=N/C#N)Nc2cccc(-c3ccc(F)cc3)c2)ccc1C#N [IMPDH II inhibitor, 56] | < 30 µM
29 | COc1cc(N/C(=N/C#N)Nc2cccc(-c3cccc(C(F)(F)F)c3)c2)ccc1C#N [IMPDH II inhibitor, 57] | < 30 µM
30 | COc1cc(N/C(=N/C#N)Nc2cccc(-c3cccc(C(=O)O)c3)c2)ccc1C#N [IMPDH II inhibitor, 58] | < 30 µM
31 | COc1cc(N/C(=N/C#N)Nc2cccc(-c3ccc(C#N)cc3)c2)ccc1C#N [IMPDH II inhibitor, 59] | < 30 µM
32 | COc1cc(N/C(=N/C#N)Nc2cccc(-c3cccc(C#N)c3)c2)ccc1C#N [IMPDH II inhibitor, 60] | < 30 µM

The remaining lines, values ahead:

Row | IC50 | Compound
33 | 0.23 µM | CCC(CC#N)OC(=O)N[C@@H](C)c1cccc(NC(=O)Nc2ccc(OC)c(OC)c2)c1 (some centres not stated) [IMPDH II inhibitor, 13]
34 | 19 µM | CCC(CC#N)OC(=O)N[C@@H](C)c1cccc(NC(=O)Nc2ccc(C)c(OC)c2)c1 (some centres not stated) [IMPDH II inhibitor, 14]
35 | < 30 µM | CCC(CC#N)OC(=O)N[C@@H](C)c1cccc(NC(=O)Nc2ccc(N3CCOCC3)c(OC)c2)c1 (some centres not stated) [IMPDH II inhibitor, 15]
36 | 3.5 µM | CCC(CC#N)OC(=O)N[C@@H](C)c1cccc(NC(=O)Nc2ccc(C3=CCOCC3)c(OC)c2)c1 (some centres not stated) [IMPDH II inhibitor, 16]
37 | < 30 µM | CCC(CC#N)OC(=O)N[C@@H](C)c1cccc(NC(=O)Nc2ccc(C3CCOCC3)c(OC)c2)c1 (some centres not stated) [IMPDH II inhibitor, 17]
38 | 10 µM | CCC(CC#N)OC(=O)N[C@@H](C)c1cccc(NC(=O)Nc2ccc3c(c2)OCC3)c1 (some centres not stated) [IMPDH II inhibitor, 18]
39 | 14 µM | CCC(CC#N)OC(=O)N[C@@H](C)c1cccc(NC(=O)Nc2ccc3c(c2)ncn3C)c1 (some centres not stated) [IMPDH II inhibitor, 21]
40 | < 30 µM | CCC(CC#N)OC(=O)N[C@@H](C)c1cccc(NC(=O)Nc2ccc3ncc(OC)nc3c2)c1 (some centres not stated) [IMPDH II inhibitor, 22]
41 | < 30 µM | CCC(CC#N)OC(=O)N[C@@H](C)c1cccc(NC(=O)Nc2ccc3cc(OC)c(OC)cc3c2)c1 (some centres not stated) [IMPDH II inhibitor, 23]
42 | < 10 µM | CCC(CC#N)OC(=O)N[C@@H](C)c1cccc(NC(=O)Nc2ccc3c(=O)ccoc3c2)c1 (some centres not stated) [IMPDH II inhibitor, 27]
43 | 3 µM | CCC(CC#N)OC(=O)N[C@@H](C)c1cccc(N/C(=N/C#N)Nc2ccc(C#N)c(OC)c2)c1 (some centres not stated) [IMPDH II inhibitor, 32]
44 | 5.6 µM | CCC(CC#N)OC(=O)N[C@@H](C)c1cccc(N/C(=N/C#N)Nc2ccc(OC)c(OC)c2)c1 (some centres not stated) [IMPDH II inhibitor, 33]
45 | 25 µM | CCC(CC#N)OC(=O)N[C@@H](C)c1cccc(N2C(=O)CN(c3ccc(C#N)c(OC)c3)C2=O)c1 (some centres not stated) [IMPDH II inhibitor, 42]
46 | 0.38 µM | CCC(CC#N)OC(=O)N[C@@H](C)c1cccc(NC(=O)Nc2ccc(C#N)c(OC)c2)c1 (some centres not stated) [VX-148 (3)]
47 | 0.0035 µM | COc1cc(NC(=O)Nc2cccc(CNC(=O)OC3CCOC3)c2)ccc1-c1cnco1 (configuration not stated) [VX-497 (2)]
